The values below come from patent US4666924A, “Certain pyridyl substituted aminomethyl benzene derivatives having anti-arrhythmic activity” (priority 1984, dated 1987).

The subject of data set [1] is Harris dog (ventricular arrhythmias). Description: Antiarrhythmic activity by coronary ligation in the Harris dog model. In kind it is in vivo, adult mongrel dogs. The following applies: for minimal effective dose: Canis lupus familiaris, 5 min, read-out: Antiarrhythmic ED in Harris Dog (effective dose required to sustain normal sinus rhythm). An excerpt:
The following examples describe the pharmacological evaluation of the compounds made in accordance with the present invention. In particular, these examples describe the evaluation of antiarrhythmic activity by coronary ligation in the well known Harris dog model. Ventricular arrhythmias were induced in adult mongrel dogs (10-15 kg) of either sex by two-state ligation of the left anterior descending coronary artery. […] The test compound in saline was infused intravenously at a cumulative rate of 0.3 mg/kg/min (base) until normal sinus rhythm or toxicity occurred. Normal sinus rhythm was defined as 90-100% normal complexes over a 5 min period.

The test system of data set [2] is guinea pig ileum. The data set can be described thus: In vitro anticholinergic activity in the isolated guinea pig ileum (field stimulation). Type of data set: cell-based, male Hartley guinea pigs. The following applies: for inhibition at 4 µg/mL: Cavia porcellus, read-out: Anticholinergic Inhibition of Guinea Pig Ileum. On the procedure: The following examples describe the in vitro evaluation of anticholinergic activity in the isolated guinea pig ileum. Fasted, male Hartley guinea pigs (300-400 g) were killed by a blow to the head. […] One end of the ileal strip was impaled onto a platinum wire electrode; and the other end was tied to a stationary glass rod. Basal tension was set at 0.1-0.3 g and peak developed tension in response to field stimulation (100-150 V, 10 msec pulse duration, 0.2 Hz) was measured with a tension transducer.

Data set [3] has as its system cardiac cells. As to conditions: cited from earlier work; for effects on impulse formation, conduction velocity and refractory period: cardiac cells.
In data set [4] the test system is patients. The following applies: cited from earlier work.
Data set [5] relates to vagal stimulation of the heart and peripheral parasympathetic stimulation. The following applies: cited from earlier work.
Where [6] appears, read: IV infusion in saline, cumulative rate 0.3 mg/kg/min (base), day after two-stage ligation of left anterior descending coronary artery, normal sinus rhythm = 90-100% normal complexes over 5 min.
Where [7] appears, read: at 4 mg/L, field stimulation 100-150 V, 10 msec, 0.2 Hz.
The mark [8] stands for this setting: patients, management of arrhythmias.

SMILES strings stand for the structures. Read-outs that look alike come from different tables or passages of the source.

Turning to `Oc1c(CN2CCCC2)cc(Nc2ccc(Cl)nn2)cc1CN1CCCC1` [Example X, 3-N-[3',5'-bis(N-pyrrolidinylmethyl)-4'-hydroxyanilino]-6-chloropyridazine], in data set [1] (setting [6]), the minimal effective dose stood at 10.5 mg/kg. In data set [2] (setting [7]), the inhibition at 4 µg/mL was found to be 40%.
For `Oc1c(CN2CCCC2)cc(Nc2nncc3ccccc23)cc1CN1CCCC1` [Example IV, 1[3',5'-bis[N-pyrrolidinylmethyl]-4'-hydroxyanilino]-phthalazine], in that order: 1.5 mg/kg and 83%.
With `Nc1cc(CN2CCCC2)c(O)c(CN2CCCC2)c1` [Example I, 3,5-bis(N-pyrrolidinylmethyl)-4-hydroxyaniline], in data set [1] (setting [6]), the “Antiarrhythmic ED in Harris Dog (effective dose required to sustain normal sinus rhythm)” value (from here on “Antiarrhythmic ED in Harris Dog”) is “inactive”. In addition, the inhibition at 4 µg/mL in data set [2] (setting [7]) was 3%.
With `C=C[C@H]1C[N@@]2CC[C@H]1C[C@@H]2[C@@H](O)c1ccnc2ccc(OC)cc12` (stereo in doubt) [Quinidine, 6-methoxy-α-(5'-vinyl-2-quinuclidinyl)-4-quindinemethanol], the minimal effective dose in data set [1] (setting [6]) is 10.1 mg/kg. The inhibition at 4 µg/mL in data set [2] (setting [7]) turned out to be 62%. Further, the “effects on impulse formation, conduction velocity and refractory period” value in data set [3] is “depress impulse formation, slow conduction velocity, and increase the duration of the refractory period of cardiac cells”. The adverse side-effects result in data set [4] (human, in vivo) was “cardiotoxicity, diarrhea, nausea, vomiting, fever, hypertension and depression of myocardial contractility”. The anticholinergic action result in data set [5] is on record as “indirect anticholinergic actions”.
As for `Oc1c(CN2CCCC2)cc(Nc2ccncc2)cc1CN1CCCC1` [XX], in data set [1] (setting [6]), the minimal effective dose was determined as 8 mg/kg. In data set [2] (setting [7]), the inhibition at 4 µg/mL is 5%.
With `Oc1ccc(Nc2nncc3ccccc23)cc1` [Example III, 1-(4'-hydroxyanilino)phthalazine], in data set [1] (setting [6]), the “Antiarrhythmic ED in Harris Dog” value was “inactive”. The inhibition at 4 µg/mL in data set [2] (setting [7]) turned out to be 23%.
In the case of `COc1nnc(Nc2cc(CN3CCCC3)c(O)c(CN3CCCC3)c2)c2ccccc12` [VII, 1-N-[3',5'-bis(pyrrolidinylmethyl)-4'-hydroxyanilino]-4-methoxyphthalazine], the “Antiarrhythmic ED in Harris Dog” value in data set [1] (setting [6]) was “low activity”. Also, the inhibition at 4 µg/mL in data set [2] (setting [7]) worked out at 84%.
Take `Clc1nnc(Nc2cc(CN3CCCC3)cc(CN3CCCC3)c2)c2ccccc12` [XXI]: the minimal effective dose in data set [1] (setting [6]) amounted to 3 mg/kg. Besides, in data set [2] (setting [7]), the inhibition at 4 µg/mL turned out to be 93%.
On the same counts, the results for `Oc1c(CN2CCCC2)cc(Nc2nnc(Cl)c3ccccc23)cc1CN1CCCC1` [Example V, 1-N-[3',5'-bis(N-pyrrolidinylmethyl)-4'-hydroxyanilino]-4-chlorophthalazine] are 2.5 mg/kg and 76%.
Turning to `COc1cc2c(Nc3cc(CN4CCCC4)c(O)c(CN4CCCC4)c3)ncnc2c(OC)c1OC` [XII, 4-[3',5'-bis(pyrrolidinylmethyl)-4'-hydroxyanilino]-6,7,8-trimethoxyquinazoline], in data set [2] (setting [7]), the inhibition at 4 µg/mL was 14%.
Consider `Oc1c(CN2CCCC2)cc(Nc2ccc3ccccc3n2)cc1CN1CCCC1` [Example XVII, 2-[3',5'-bis(N-pyrrolidinylmethyl)-4'-hydroxyanilino]-quinoline], for which the minimal effective dose in data set [1] (setting [6]) was 6 mg/kg. Also, in data set [2] (setting [7]), the inhibition at 4 µg/mL was 50%.
For `CN(C)Cc1cc(Nc2nncc3ccccc23)cc(CN(C)C)c1O` [IX], in that order: 14 mg/kg and 14%.
Turning to `Oc1c(CN2CCCC2)cc(Nc2ncnc3ccccc23)cc1CN1CCCC1` [Changrolin, 4-[3',5'-bis[N-pyrolidinylmethyl]-4'-hydroxyanilino]-quinazoline], the minimal effective dose in data set [1] (setting [6]) was 10.3 mg/kg. For the same compound, the inhibition at 4 µg/mL in data set [2] (setting [7]) was 43%. In data set [3] (background statement), the “antiarrhythmic effectiveness of known agent” value is “effective antiarrhythmic agent”. Besides, the adverse side-effects entry in data set [4] (setting [8]) is reported as “skin discoloration in some patients”. In addition, the anticholinergic action result in data set [5] is reported as “substantial anticholinergic activity”.
Take `Cc1cc(Nc2cc(CN3CCCC3)c(O)c(CN3CCCC3)c2)c2ccccc2n1` [Example XIV, 2-methyl-4-[3',5'-bis(N-pyrrolidinylmethyl)]-4'-hydroxyanilinoquinoline]: in data set [1] (setting [6]), the minimal effective dose was found to be 9.5 mg/kg.
With `CC(C)N(CCC(C(N)=O)(c1ccccc1)c1ccccn1)C(C)C` (stereo not drawn) [Disopyramide, α[2-(diisopropylamino)-ethyl]α-phenol-2-pyridineacetamide], the minimal effective dose in data set [1] (iv) came out at 6.8 mg/kg. For the same compound, the inhibition at 4 µg/mL in data set [2] is 81%. Further, the “effects on impulse formation, conduction velocity and refractory period” value in data set [3] was “depress impulse formation, slow conduction velocity, and increase the duration of the refractory period of cardiac cells”. Further, the adverse side-effects entry in data set [4] (setting [8]) is “dryness of the mouth, blurred vision, constipation, and urinary retention, and depression of myocardial contractility”. Also, the anticholinergic action result in data set [5] is given as “indirect anticholinergic actions”.
As to `Oc1ccc(Nc2ncnc3ccccc23)cc1` [Example II, 4-(4'-hydroxyanilino)-quinazoline], the “Antiarrhythmic ED in Harris Dog” value in data set [1] (setting [6]) is “inactive”. Besides, the inhibition at 4 µg/mL in data set [2] (setting [7]) worked out at 13%.
For `Oc1c(CN2CCCC2)cc(Nc2ccnc3ccccc23)cc1CN1CCCC1` [Example XVI, 4-[3',5'-bis(N-pyrrolidinylmethyl)-4'-hydroxyanilino]-quinoline], in that order: “low activity” and 19%.
For `Oc1c(CN2CCCC2)cc(Nc2ccnc3cc(C(F)(F)F)ccc23)cc1CN1CCCC1` [XIII, 4-[3',5'-bis(N-pyrrolidinylmethyl)-4'-hydroxyanilino]-7-trifluoromethylquinoline], in data set [1] (setting [6]), the minimal effective dose is 3 mg/kg. Also, the inhibition at 4 µg/mL in data set [2] (setting [7]) is 36%.
Take `Oc1c(CN2CCCC2)cc(CNc2nnc(Cl)c3ccccc23)cc1CN1CCCC1` [XIX, 1-N-[3',5'-bis(N-pyrrolidinylmethyl)-4'-hydroxybenzylamino]-4-chlorophthalazine]: the minimal effective dose in data set [1] (setting [6]) came out at 4.5 mg/kg. Also, the inhibition at 4 µg/mL in data set [2] (setting [7]) was determined as 78%.
Turning to `Oc1c(CN2CCCC2)cc(Nc2ncccn2)cc1CN1CCCC1` [Example XI, 2-N-[3',5'-bis(pyrrolidinylmethyl)-4'-hydroxyanilino]-pyrimidine], the “Antiarrhythmic ED in Harris Dog” value in data set [1] (setting [6]) is on record as “low activity”. Also, the inhibition at 4 µg/mL in data set [2] (setting [7]) was found to be 6%.
As for `Oc1c(CN2CCCC2)cc(Nc2nccc3ccccc23)cc1CN1CCCC1` [VIII, 1-N-[3',5'-bis(pyrrolidinylmethyl)-4'-hydroxyanilino]-isoquinoline], the minimal effective dose in data set [1] (setting [6]) worked out at 1.1 mg/kg. Also, in data set [2] (setting [7]), the “Anticholinergic Inhibition of Guinea Pig Ileum” value is “active”.
For the compound `Oc1c(CN2CCCC2)cc(Nc2ccnc3cc(Cl)ccc23)cc1CN1CCCC1` [Example XV, 4-[3',5'-bis(N-pyrrolidinylmethyl)-4'-hydroxyanilino]-7-chloroquinoline], in data set [1] (setting [6]), the “Antiarrhythmic ED in Harris Dog” value is “low activity”. Also, in data set [2] (setting [7]), the inhibition at 4 µg/mL stood at 27%.
As to `Oc1ccc(Nc2nnc(Cl)c3ccccc23)cc1CN1CCCC1` [VI, 1-N-[3'-N-pyrrolidinylmethyl-4'-hydroxyanilino]-4-chlorophthalazine], the minimal effective dose in data set [1] (setting [6]) is 17 mg/kg. In addition, the inhibition at 4 µg/mL in data set [2] (setting [7]) is 65%.
As for `Oc1ccc(Nc2ccc3ccccc3n2)cc1CN1CCCC1` [XVIII, 2-[3'-(N-pyrrolidinylmethyl)-4'-hydroxyanilino]-quinoline], the minimal effective dose in data set [1] (setting [6]) came to 11 mg/kg. The inhibition at 4 µg/mL in data set [2] (setting [7]) worked out at 72%.
